Patent US20240158438A1, “POLYPEPTIDE COMPOUND AND APPLICATION THEREOF” (CHENGDU SINTANOVO BIOTECHNOLOGY CO., LTD., priority 2021, published 2024)
Starred links: 1 amine or outer side, 2 acyl side, 3 side chain; linkers in the order of their positions; H or OH if unused. Non-standard residues stand in square brackets, D forms with d. Residues, ends and D or L forms follow the SMILES beside them. *: point of attachment. Azetidine3carboxylic = O=C(C1CN([*:1])C1)[*:2]; Pyrrolidine3carbonyl(3S) = O=C([C@H]1CCNC1)*; X6 = O=C(C1[C@H]2CC[C@H](C2)N1[*:1])[*:2]; X5 = NC12CC3CC(C1)CC(CC(=O)*)(C3)C2; dBta = N[C@H](Cc1csc2ccccc12)C(=O)O; X7 = O=C([C@@]12CNC[C@@H]1C2)*; Ac4c(3-oxa) = NC1(C(=O)O)COC1; X1 = N[C@H]1CCC[C@H]1C(=O)*; dNle = CCCC[C@@H](N)C(=O)O; Nle = CCCC[C@H](N)C(=O)O; dAbu = CC[C@@H](N)C(=O)O; Api = NC1(C(=O)O)CCNCC1; X4 = O=C([C@H]1CNCCO1)*; dAze = O=C(O)[C@H]1CCN1; X3 = NCC1(C(=O)*)CCC1

The compounds below were run against GHSR-1a (Homo sapiens (Human), UniProt Q92847) (assay: Agonistic activity for GHSR-1a, FLIPR calcium assay). Details: agonist activity assay, Flp In-CHO-GHSR Stable Pool cells, FLIPR calcium 6 kit; read-out: The activity (IC50) of polypeptide compounds for GHSR-1a.
GHSR-1a, sequence (Q92847 whole entry): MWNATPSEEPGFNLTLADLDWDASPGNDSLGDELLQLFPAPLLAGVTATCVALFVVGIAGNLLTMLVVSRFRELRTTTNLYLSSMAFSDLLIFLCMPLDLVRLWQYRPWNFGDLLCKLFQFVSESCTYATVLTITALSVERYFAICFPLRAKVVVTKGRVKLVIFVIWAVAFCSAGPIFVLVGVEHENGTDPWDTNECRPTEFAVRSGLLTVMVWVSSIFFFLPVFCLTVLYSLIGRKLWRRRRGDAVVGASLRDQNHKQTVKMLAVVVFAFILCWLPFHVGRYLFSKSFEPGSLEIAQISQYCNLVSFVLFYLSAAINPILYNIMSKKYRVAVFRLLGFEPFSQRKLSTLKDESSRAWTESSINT
Type: cell-based
Text: The use of recombinant expression of GHSR provides several advantages; for example, the receptor can be expressed in a determined cell system, so that it is easier to distinguish between the reactions of the compounds with GHSR and the reactions with other receptors. For example, cell lines such as HEK293, COS7 and CHO that […] can be used to express GHSR, and the same cell lines without expression vectors are used as controls.
The activity of GHSR-1a can be measured using different techniques, for example, by detecting the change in the intracellular conformation of GHSR, the change in G-protein coupling activity, and/or the change in intracellular messengers. Techniques such as measuring intracellular Ca^2+ are preferably used to measure the activity of GHSR-1a. Examples of techniques known in the art that can be used to measure Ca^2+ include the use of FLIPR® calcium ion assay kits, among others. The FLIPR® calcium ion assay kits use a calcium ion sensitive indicator and a masking dye to ensure that a researcher carries out high-sensitivity fluorescent screening for G protein-coupled receptors, ion channels and other calcium ion sensitive targets. This experiment used FLIPR calcium 6 assay kits and FLIPR calcium 6-QF assay kits.
• a) Cell line: Flp In-CHO-GHSR Stable Pool; • b) Complete medium: F12K+10% fetal bovine serum+1×penicillin-streptomycin (PS)+600 μg/mL hygromycin B; • c) Cell seeding medium: F12K+10% fetal bovine serum. • d) Assay buffer: 1× HBSS+20 mM HEPES. • e) […] component A: Assay buffer and component A were left at room temperature (RT), 10 mL of buffer was added to component A, and the mixture was vortexed for 1-2 min and stored at −20° C.
• a) Compound stock solutions: the powders from in-house synthesis were made into 10 mM stock solutions in DMSO according to the standard protocol. • b) Compound storage: all compounds in DMSO were stored in room temperature desiccators for short-term storage (at most 4 months). The remaining compounds were left at −20 ° C. for long-term storage.
• a) Flp In-CHO-GHSR Stable Pool cells were cultured in complete medium. • b) The cells were placed in […] cell seeding medium in a 384-well cell culture plate (Corning, 3764) at 7k cells/well and cultured overnight at 37° C. with 5% CO2. • c) 20× component A was thawed at room temperature, diluted with assay buffer to 2×, and left at RT. • d) The Petri dish was taken out of the incubator and equilibrated at room temperature for 10 min. The medium was changed to […]. After the final wash, 20 μL of buffer was kept in each well, 20 μL of 2× component A was then added to each well, and the plate was incubated at 37° C. for 3-5 s. • e) 10 μL of 5× compound was added to the 384-well cell culture plate, and data collection was immediately performed using FLIPR Tetra.
• 1) Z′ factor=1−3×(SDMax+SDMin)/(MeanMax−MeanMin); • 2) CVMax=(SDMax/MeanMax)×100%; • 3) CVMin=(SDMin/MeanMin)×100%; • 4) S/B=Singal/Background; • 5) Calculation formula for IC50: • Y=Bottom+(Top−Bottom)/(1+10^((LogIC50−X)×HillSlope)) • X: log value of compound concentration; Y: Activation % or Inhibition %

IC50	SMILES
59.4 nM	CCCC[C@@H](N)C(=O)N[C@H](Cc1csc2ccccc12)C(=O)N[C@H](Cc1c[nH]c2ccccc12)C(=O)N[C@@H](Cc1ccccc1)C(=O)N[C@H](CCCCN)C(N)=O [Compound 49] (H-[dNle][dBta][dW]F[dK]-NH2)
67.2 nM	CCCC[C@H](N)C(=O)N[C@H](Cc1csc2ccccc12)C(=O)N[C@H](Cc1c[nH]c2ccccc12)C(=O)N[C@@H](Cc1ccccc1)C(=O)N[C@H](CCCCN)C(N)=O [Compound 50] (H-[Nle][dBta][dW]F[dK]-NH2)
20 nM	NCCCC[C@@H](NC(=O)[C@H](Cc1ccccc1)NC(=O)[C@@H](Cc1c[nH]c2ccccc12)NC(=O)[C@@H](Cc1csc2ccccc12)NC(=O)[C@H]1CCN1)C(N)=O [Compound 55] (H-[dAze][dBta][dW]F[dK]-NH2)
13.4 nM	NCCCC[C@@H](NC(=O)[C@H](Cc1ccccc1)NC(=O)[C@@H](Cc1c[nH]c2ccccc12)NC(=O)[C@@H](Cc1csc2ccccc12)NC(=O)[C@H]1CNCCO1)C(N)=O [Compound 57] (X4-[dBta][dW]F[dK]-NH2)
104 nM	NCCCC[C@@H](NC(=O)[C@H](Cc1ccccc1)NC(=O)[C@@H](Cc1c[nH]c2ccccc12)NC(=O)[C@@H](Cc1csc2ccccc12)NC(=O)CC12CC3CC(CC(N)(C3)C1)C2)C(N)=O [Compound 58] (X5-[dBta][dW]F[dK]-NH2)
16.8 nM	NCCCC[C@@H](NC(=O)[C@H](Cc1ccccc1)NC(=O)[C@@H](Cc1c[nH]c2ccccc12)NC(=O)[C@@H](Cc1csc2ccccc12)NC(=O)C1N[C@@H]2CC[C@H]1C2)C(N)=O (some centres unmarked) [Compound 59] (H-[X6][dBta][dW]F[dK]-NH2)
22.4 nM	NCCCC[C@@H](NC(=O)[C@H](Cc1ccccc1)NC(=O)[C@@H](Cc1c[nH]c2ccccc12)NC(=O)[C@@H](Cc1csc2ccccc12)NC(=O)[C@@]12CNC[C@@H]1C2)C(N)=O [Compound 60] (X7-[dBta][dW]F[dK]-NH2)
20.5 nM	N=C(N)NCCC[C@@H](NC(=O)[C@H](Cc1ccccc1)NC(=O)[C@@H](Cc1c[nH]c2ccccc12)NC(=O)[C@@H](Cc1csc2ccccc12)NC(=O)[C@@H]1CCC[C@@H]1N)C(N)=O [Compound 61] (X1-[dBta][dW]F[dR]-NH2)
30.3 nM	N=C(N)NCCC[C@@H](NC(=O)[C@H](Cc1ccccc1)NC(=O)[C@@H](Cc1c[nH]c2ccccc12)NC(=O)[C@@H](Cc1csc2ccccc12)NC(=O)C1(CN)CCC1)C(N)=O [Compound 62] (X3-[dBta][dW]F[dR]-NH2)
27 nM	N=C(N)NCCC[C@@H](NC(=O)[C@H](Cc1ccccc1)NC(=O)[C@@H](Cc1c[nH]c2ccccc12)NC(=O)[C@@H](Cc1csc2ccccc12)NC(=O)C1CNC1)C(N)=O [Compound 63] (Azetidine3carboxylic-[dBta][dW]F[dR]-NH2)
38.1 nM	N=C(N)NCCC[C@@H](NC(=O)[C@H](Cc1ccccc1)NC(=O)[C@@H](Cc1c[nH]c2ccccc12)NC(=O)[C@@H](Cc1csc2ccccc12)NC(=O)C1(N)COC1)C(N)=O [Compound 64] (H-[Ac4c(3-oxa)][dBta][dW]F[dR]-NH2)
34.3 nM	N=C(N)NCCC[C@@H](NC(=O)[C@H](Cc1ccccc1)NC(=O)[C@@H](Cc1c[nH]c2ccccc12)NC(=O)[C@@H](Cc1csc2ccccc12)NC(=O)[C@H]1CCN1)C(N)=O [Compound 65] (H-[dAze][dBta][dW]F[dR]-NH2)
12 nM	N=C(N)NCCC[C@@H](NC(=O)[C@H](Cc1ccccc1)NC(=O)[C@@H](Cc1c[nH]c2ccccc12)NC(=O)[C@@H](Cc1csc2ccccc12)NC(=O)[C@H]1CCNC1)C(N)=O [Compound 66] ({Pyrrolidine3carbonyl(3S)}-[dBta][dW]F[dR]-NH2)
23.3 nM	N=C(N)NCCC[C@@H](NC(=O)[C@H](Cc1ccccc1)NC(=O)[C@@H](Cc1c[nH]c2ccccc12)NC(=O)[C@@H](Cc1csc2ccccc12)NC(=O)[C@H]1CNCCO1)C(N)=O [Compound 67] (X4-[dBta][dW]F[dR]-NH2)
330 nM	N=C(N)NCCC[C@@H](NC(=O)[C@H](Cc1ccccc1)NC(=O)[C@@H](Cc1c[nH]c2ccccc12)NC(=O)[C@@H](Cc1csc2ccccc12)NC(=O)CC12CC3CC(CC(N)(C3)C1)C2)C(N)=O [Compound 68] (X5-[dBta][dW]F[dR]-NH2)
40.2 nM	N=C(N)NCCC[C@@H](NC(=O)[C@H](Cc1ccccc1)NC(=O)[C@@H](Cc1c[nH]c2ccccc12)NC(=O)[C@@H](Cc1csc2ccccc12)NC(=O)C1N[C@@H]2CC[C@H]1C2)C(N)=O (some centres unmarked) [Compound 69] (H-[X6][dBta][dW]F[dR]-NH2)
39.7 nM	N=C(N)NCCC[C@@H](NC(=O)[C@H](Cc1ccccc1)NC(=O)[C@@H](Cc1c[nH]c2ccccc12)NC(=O)[C@@H](Cc1csc2ccccc12)NC(=O)[C@@]12CNC[C@@H]1C2)C(N)=O [Compound 70] (X7-[dBta][dW]F[dR]-NH2)
15.9 nM	NC(=O)[C@H](Cc1ccccc1)NC(=O)[C@@H](Cc1c[nH]c2ccccc12)NC(=O)[C@@H](Cc1csc2ccccc12)NC(=O)C1CNC1 [Compound 73]
17.3 nM	NC(=O)[C@H](Cc1ccccc1)NC(=O)[C@@H](Cc1c[nH]c2ccccc12)NC(=O)[C@@H](Cc1csc2ccccc12)NC(=O)C1(N)COC1 [Compound 74] (H-[Ac4c(3-oxa)][dBta][dW]F-NH2)
12.4 nM	NC(=O)[C@H](Cc1ccccc1)NC(=O)[C@@H](Cc1c[nH]c2ccccc12)NC(=O)[C@@H](Cc1csc2ccccc12)NC(=O)[C@H]1CCN1 [Compound 75] (H-[dAze][dBta][dW]F-NH2)
78.4 nM	NC(=O)[C@H](Cc1ccccc1)NC(=O)[C@@H](Cc1c[nH]c2ccccc12)NC(=O)[C@@H](Cc1csc2ccccc12)NC(=O)CC12CC3CC(CC(N)(C3)C1)C2 [Compound 78]
33.1 nM	NC(=O)[C@H](Cc1ccccc1)NC(=O)[C@@H](Cc1c[nH]c2ccccc12)NC(=O)[C@@H](Cc1csc2ccccc12)NC(=O)C1N[C@@H]2CC[C@H]1C2 (some centres unmarked) [Compound 79]
7.2 nM	CCCC[C@@H](NC(=O)[C@@H](CCCCN)NC(=O)[C@H](Cc1ccccc1)NC(=O)[C@@H](Cc1c[nH]c2ccccc12)NC(=O)[C@@H](Cc1csc2ccccc12)NC(=O)[C@H](N)CC)C(N)=O [Compound 81] (H-[dAbu][dBta][dW]F[dK][dNle]-NH2)
9 nM	CCCC[C@@H](NC(=O)[C@@H](CCCCN)NC(=O)[C@H](Cc1ccccc1)NC(=O)[C@@H](Cc1c[nH]c2ccccc12)NC(=O)[C@@H](Cc1csc2ccccc12)NC(=O)[C@H](N)CC)C(=O)N[C@H](C)C(N)=O [Compound 82] (H-[dAbu][dBta][dW]F[dK][dNle][dA]-NH2)
12.2 nM	CCCC[C@@H](NC(=O)C1(NC(=O)[C@H](Cc2ccccc2)NC(=O)[C@@H](Cc2c[nH]c3ccccc23)NC(=O)[C@@H](Cc2csc3ccccc23)NC(=O)[C@H](N)CC)CCNCC1)C(N)=O [Compound 83] (H-[dAbu][dBta][dW]F[Api][dNle]-NH2)
6.7 nM	CCCC[C@@H](NC(=O)C1(NC(=O)[C@H](Cc2ccccc2)NC(=O)[C@@H](Cc2c[nH]c3ccccc23)NC(=O)[C@@H](Cc2csc3ccccc23)NC(=O)[C@H](N)CC)CCNCC1)C(=O)N[C@H](C)C(N)=O [Compound 84] (H-[dAbu][dBta][dW]F[Api][dNle][dA]-NH2)
